From patent US9499485B2, “Compounds that are S1P modulating agents and/or ATX modulating agents” (BIOGEN MA INC., priority 2012, dated 2016)

Tests used:
Human ATX protein = target: T1, Human ATX protein (Homo sapiens, UniProt Q13822); assay: ATX biochemical FRET assay with FS-3 substrate; conditions: FS-3 2 μM, ATX 1.0 μg/mL, binned table, read-out: IC50 (μm)
T1 construct: made in house
Source text: ATX (Autotaxin) is a 125 KDa glycoprotein with lysophospholipase D (LPLD) activity that generates the bioactive lipid lysophosphatidic acid (LPA) from lysophosphatidylcholine (LPC). The ATX biochemical assay utilizes a FRET (fluorescence resonance energy transfer) technology platform. The fluorescence signal of FRET substrate FS-3 is quenched due to intra-molecular FRET of a fluorophore to a non-fluorescing quencher (Ferguson, C. G., et al., Org. Lett. 2006 May 11; 8(10): 2023-2026, which is incorporated by reference in its entirety). ATX catalyzes the hydrolysis of the substrate which separates the dabsyl quencher from the fluorescein reporter, which becomes fluorescent. The reaction is monitored by a SpectraMax M5 (Molecular Devices, Sunnyvale, Calif.) with at excitation wavelength 485 nm and emission wavelength 535 nm.
2×ATX assay buffer: 100 mM Tris, 280 mM NaCl, 10 mM KCl, 2 mM CaCl2, 2 mM MgCl2, pH 7.4.
Human ATX protein: expressed and purified in house. Stored at −80° C.
Substrate FS-3 (Echelon, L-2000): 100 μg in 77.74 μL H2O (1 mM stock), stored at −20° C.
Compound dilution—All compounds were provided at 10 mM in 100% DMSO. In the first well, 2 μL of 10 mM compound was added to 78 μL of DMSO (1:40 dilution). In subsequent wells 3-fold dilution (total 10 dilutions) were performed.
1×ATX assay buffer was made up with a final concentration of 1 mg/mL fatty acid free-BSA using 2×ATX assay buffer, 10 mg/ml fatty acid free-BSA and ddH2O.
ATX protein was diluted with 1×ATX assay buffer to a concentration of 1.32 μg/mL (1.32×). 38 μL was added per well to the assay plate. The final concentration of ATX in the reaction as 1.0 μg/mL.
2 μL per well of compounds was transferred to provide the desired concentration. The plate was centrifuged, then incubated at room temperature for 30 minutes on the shaker.
FS-3 was diluted with 1×ATX assay buffer to a concentration of FS-3 of 10 μM (5×). Then, 10 μL was added per well to the assay plate. The final concentration of FS-3 in the reaction was 2 μM. The plate was centrifuged. The plate was kept shaking at room temperature for 2 hours. Because FS-3 substrate is light sensitive, plates were kept covered and protected from light.
Fluorescence was measured using SpectraMax M5 (excitation at 485 nm/emission at 538 nm, top read).

human S1P4 = target: T2, human S1P4 (Homo sapiens, UniProt O95977); assay: S1P receptor calcium flux assay, antagonist format (S1P4 antagonist activity); format: cell-based; conditions: calcium mobilization, recombinant CHEM cells expressing human S1P4, stimulated with EC80 of reference agonist
T2 construct: host or cells: recombinant CHEM cells
T2 sequence (O95977 1-384): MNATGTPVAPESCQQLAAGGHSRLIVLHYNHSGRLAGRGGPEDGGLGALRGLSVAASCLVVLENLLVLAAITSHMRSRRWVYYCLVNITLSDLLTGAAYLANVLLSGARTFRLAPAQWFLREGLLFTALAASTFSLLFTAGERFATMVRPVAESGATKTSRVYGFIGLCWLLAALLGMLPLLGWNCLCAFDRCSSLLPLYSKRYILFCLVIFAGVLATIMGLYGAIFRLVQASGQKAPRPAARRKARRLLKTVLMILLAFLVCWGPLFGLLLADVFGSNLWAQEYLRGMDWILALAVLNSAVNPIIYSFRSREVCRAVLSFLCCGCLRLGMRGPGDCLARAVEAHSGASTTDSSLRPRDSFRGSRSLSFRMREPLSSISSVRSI
Procedure: Compounds that are not specific for a particular S1P receptor can cause undesirable side effects. Accordingly, compounds are tested to identify those that are specific. Accordingly, the test compounds are tested in a calcium mobilization assay/S1P receptor activity assay. The procedure is essentially as described in Davis et al. (2005) Journal of Biological Chemistry, vol. 280, pp. 9833-9841, which is incorporated by reference in its entirety with the following modifications. Calcium mobilization assays are performed in recombinant CHEM cells expressing human S1P1, S1P2, S1P3, S1P4, or S1P5 purchased from Millipore (Billerica, Mass.). To detect free intracellular calcium, S1P1, S1P2, S1P3, S1P4, or S1P5 cells are loaded with FLIPR Calcium 4 dye from Molecular Devices (Sunnyvale, Calif.). Cells are imaged for calcium mobilization using a FLIPR^TETRA equipped with a 96-well dispense head.
Agonist percentage activation determinations were obtained by assaying sample compounds and referencing the Emax control for each receptor profiled. Antagonist percentage inhibition determinations were obtained by assaying sample compounds and referencing the control EC80 wells for each receptor profiled.
Sample compounds were plated in an eight-point, four-fold dilution series in duplicate with a top concentration of 10 μM. The concentrations described here reflect the final concentration of the compounds during the antagonist assay. During the agonist assay the compound concentrations were 1.25 fold higher to allow for the final desired concentration to be achieved with further dilution by EC80 of reference agonists during the antagonist assay.
Reference agonists were handled as mentioned above serving as assay control. The reference agonists were handled as described above for Emax.
Assay was read for 180 seconds using the FLIPR^TETRA (This assay run added sample compounds and reference agonist to respective wells). At the completion of the first “Single Addition” assay run, assay plate was removed from the FLIPR^TETRA and placed at 25° C. for seven (7) minutes.
Using the EC80 values determined during the agonist assay, stimulated all pre-incubated sample compound and reference antagonist (if applicable) wells with EC80 of reference agonist. Read for 180 seconds using the FLIPR^TETRA (This assay added reference agonist to respective wells—then fluorescence measurements were collected to calculate percentage inhibition values).

Compound | IC50 (Human ATX protein) [µM] | IC50 (human S1P4) [µM]
O=C(O)C[C@H]1CCCN(Cc2cccc3ccc(O[C@H]4CC[C@@H](C(F)(F)F)CC4)c(C(F)(F)F)c23)C1 [Example 28, 2-((R)-1-((8-(trifluoromethyl)-7-((cis-4-(trifluoromethyl)cyclohexyl)oxy)naphthalen-1-yl)methyl)piperidin-3-yl)acetic acid] | 0.5 to 5 | –
CC(C)(C)[C@H]1CC[C@H](Oc2ccc3cccc(CN4CCC(C(=O)O)CC4)c3c2)CC1 [Example 29, 1-((7-((trans-4-(tert-butyl)cyclohexyl)oxy)naphthalen-1-yl)methyl)piperidine-4-carboxylic acid] | > 5 | ≤ 5
CCCCCCCOc1ccc2cccc(CN3CCC(C(=O)O)CC3)c2c1 [Example 30, 1-((7-(heptyloxy)naphthalen-1-yl)methyl)piperidine-4-carboxylic acid] | > 5 | ≤ 5
CC(C)(C)[C@H]1CC[C@H](Oc2ccc3c(CN4CCC(C(=O)O)CC4)cccc3c2)CC1 [Example 31, 1-((6-((trans-4-(tert-butyl)cyclohexyl)oxy)naphthalen-1-yl)methyl)piperidine-4-carboxylic acid] | – | ≤ 5
CCCCCCCOc1ccc2c(CN3CCC(C(=O)O)CC3)cccc2c1 [Example 32, 1-((6-(heptyloxy)naphthalen-1-yl)methyl)piperidine-4-carboxylic acid] | > 5 | ≤ 5
CC(C)(C)[C@H]1CC[C@H](Oc2ccc3c(CN4CCC(CC(=O)O)CC4)cccc3c2)CC1 [Example 33, 2-(1-((6-((trans-4-(tert-butyl)cyclohexyl)oxy)naphthalen-1-yl)methyl)piperidin-4-yl)acetic acid] | > 5 | ≤ 5
CCCCCCCOc1ccc2c(CN3CCC(CC(=O)O)CC3)cccc2c1 [Example 34, 2-(1-((6-(heptyloxy)naphthalen-1-yl)methyl)piperidin-4-yl)acetic acid] | > 5 | ≤ 5
